Measured values reported in patent US20200375996A1, “METHOD OF TREATING NEURODEGENERATIVE DISORDERS BY RESCUING ALPHA-SYNUCLEIN TOXICITY” (D.E. Shaw Research, LLC, priority 2015, published 2020).

Experiments:
[1] = tested on: α-synuclein-expressing yeast; test: α-synuclein toxicity rescue in yeast (growth, OD600); assay type: cell-based; conditions: for rescue of aSyn toxicity in yeast (in words): FIGS. 8A-8B
Method: Yeast Strains and culturing: Yeast strains expressing alpha-synuclein have been described in Cooper at. al, 2006. (Cooper A A, et al. Alpha-synuclein blocks ER-Golgi traffic and Rab1 rescues neuron loss in Parkinson's models. Science. 2006 Jul. 21; 313:324) Strains express multiple copies of alpha-synculein for galactose-inducible expression. […] Yeast were cultured in complete synthetic media (CSM) and an appropriate dropout (lacking histidine or uracil) to maintain plasmids if required. For galactose-induction experiments, overnight cultures were grown in CSM/2% glucose to saturation and diluted 1:20 into CSM/2% raffinose for ˜2 generations. Cultures were then diluted into CSM/2% galactose at an optimum OD600 for the experiment (see ‘Growth assays’).
Yeast Growth assays: Starting cultures for all dose-response assays were based on strains initially constructed in the lab to maintain homogeneity across experiments. All growth assays were carried out in 384 well format. Source plates were assembled in 96 well plates using multichannel pipettes to dilute rows in 1.6-fold serial dilutions of CSMGal. To these dilution series containing 2× final concentration of compound, 2×OD600 culture (in CSMGal) was dispensed with a multichannel pipette to achieve a final drug/culture mix with the desired OD600 and drug concentration. For WT yeast, the final starting OD600 was 0.01. For α-syn, the final starting OD600 was 0.02. Drug concentration ranges varied depending on efficacy, growth inhibition, and solubility in media. A Tecan EvoFreedom liquid handling robot was then used to transfer culture from 96 to 384 well format with each well being represented four times. Final well volume was 35 μL. Plates were then incubated in humidified containers at 30° C. for either 24 or 40 hours. Plates were then read with a Tecan Saphire plate reader at OD600.
Raw OD600 values were transformed to “Relative Growth” in WT cells or “% Maximum Rescue” in α-syn experiments. In WT cells, the well background was subtracted and all values were then normalized to 100% for the untreated condition. In α-syn rescue experiments, the well background was subtracted and the maximum rescue in the particular experiment was normalized to 100%.

[2] = tested on: Carboxypeptidase Y (CPY); test: Western blot of Carboxypeptidase Y (CPY) trafficking; assay type: cell-based, yeast
Method: (§1) Protein analysis was performed in NoTox and HiTox strains with the compound treatment at indicated concentrations. Log phase CSM/2% raffinose cultures were induced with 2% galactose for 5 hours with DMSO or the compounds. Cultures were normalized to cell density and cell pellets prepared for SDS-PAGE. Cell pellets were boiled in SDS-loading dye for 15′, centrifuged, and resolved by 4-12% SDS-PAGE. CPY western blots were performed using culture conditions as described above. An anti-Cpy antibody (Invitrogen, A6428) was used at 1:5,000. Post-ER:ER ratios were quantitated using an IRDye800 secondary antibody (Li-Cor Odyssey, Rockland Immunochemicals) and scanned with the Li-Cor Odyssey imaging system. Significance was determined using a one-way ANOVA and Tukey's test of significance. From the same gel, total protein was detected by coomassie staining. Both blots and coomassie-stained gels were scanned using the Li-Cor Odyssey imaging system and quantitated. Significance was determined using a one-way ANOVA with Tukey's test of significance.

[3] = tested on: K63 linkages in iPS derived human neurons; test: K63-Ub linkages in human iPS derived neuronal cultures (immunoblot); assay type: cell-based
Method: Human HEK-293 or neuronal cells treated with the appropriate compounds, were washed twice with ice cold PBS and then 0.5 ml of Lysis buffer was added and cells were scraped off the 10 cm dish (1 ml for 15 cm).
Lysis buffer is 50 mM Tris/HCl pH 7.5, 1 mM EGTA, 1 mM EDTA, 0.5 or 1% (v/v) NP-40, 1 mM sodium orthovanadate, 50 mM NaF, 5 mM sodium pyrophosphate, 0.27 M sucrose, 10 mM sodium 2-glycerophosphate, 0.2 mM phenylmethylsulphonyl fluoride, 1 mM benzamidine, plus 100 mM iodoacetamide added fresh prior to lysis (weight powder, don't use a frozen stock solution) to inactivate deubiquitylase activities and add also pepstatin/aprotinin to inhibit proteases. Cell extracts were sonicated twice for 15 seconds each time and clarified by centrifugation at 14000 g for 15 min at 4° C. Supernatants were collected and filtered using a 0.45 uM MiniSart/Syringe. Next, protein concentrations were determined by Bradford procedure.
The avidity based K63 linkage sensor protein was based on Sims et. al, 2012. Briefly, avidity based K63 sensor Halo-fusion protein was expressed in an E. coli expression vector and covalently bound to Halo-tag beads [Magne® HaloTag® Beads, 20% Slurry; Cat #G7281]. […] After incubation, the beads were washed three times with 1 ml of Lysis buffer containing 500 mM NaCl and once with 0.5 ml of 10 mM Tris/HCl pH 8.0. […] The eluate is heated at 75° C. for 5 min and analysed by immuno-blotting using an anti-K63 linkage specific antibody (http://www.abcam.com/ubiquitin-linkage-specific-k63-epr8590-448-antibody-ab179434.html).
Pure neuronal cultures derived from human iPS cells were treated with DMSO, DES-2877, DES-4114 and #32 at 5 μM for 12 hours. […] Ubiquitylation site identification by mass spectrometry was performed as described Kim et al., (Systematic and quantitative assessment of the ubiquitin-modified proteome. Mol Cell. 2011; 44:325-340). and Sarraf et al., (Landscape of the PARKIN-dependent ubiquitylome in response to mitochondrial depolarization. Nature. 2013; 496:372-376).

[4] = tested on: Sna3-GFP; test: Sna3-GFP trafficking to the vacuole (Western blot, GFP cleavage); assay type: cell-based, yeast; conditions: for ratio of Sna3-GFP to free GFP: 10 μM, FIGS. 16A-16F, within the compound series; for Sna3-GFP trafficking to the vacuole (in words): galactose 5 hours, FIGS. 15B-15F
Method: Log phase CsmRaf cultures of WT tagged Sna3-GFP cells were shifted to galactose for 5 hours in the presence or absence of the compounds. Cell pellets were lysed in SDS-loading dye and Sna3-GFP cleavage monitored by Western blotting with an anti-GFP antibody. Log phase CsmRaf cultures of WT or α-syn yeast were shifted to galactose for 5 hours in the presence or absence of the compounds at which point they were then prepared for Western blot analysis. FIGS. 15B-15F show Western blot analyses of Sna3-GFP for various compounds.
Ratio of the intact Sna3-GFP to cleaved GFP was calculated for each of the conditions as a readout for efficiency of trafficking of the Sna3-GFP molecule to the vacuole. Polyubiquitination of Sna3-GFP was used as a readout for the intermediate step at the multivesicular body. Image Studio software was used to determine the intensities of the bands, based on linear interpolation of the mean signal intensities from each of the areas of interest and ratios were subsequently calculated in Microsoft Excel and plotted according to the compound series as shown in FIGS. 16A-16F. In the ‘32’ series of analogs, the ratio of Sna3-GFP to free GFP varied among the analogs, with DES-2179 having the lowest ratio of Sna3-GFP to free GFP and DES-2866 having the highest ratio (FIG. 16A). In the ‘91’ series of analogs, the ratio of Sna3-GFP to free GFP varied among the analogs, but less so than for the ‘32’ series (FIG. 16B). In the ‘4117’ series of analogs, the ratio of Sna3-GFP to free GFP was lowest for DES-5212 (FIG. 16C). […] In the ‘28’ series of analogs, DES-2817 had the lowest ratio of Sna3-GFP to free GFP (FIG. 16F). The other compounds in the ‘28’ series had ratios between ˜0.5 and 1.0 (FIG. 16F). In the ‘37’ series of analogs, the ratio of Sna3-GFP to free GFP was greatest for DES-2926 (FIG. 16F).

[5] = target: T1, Rsp5 (Saccharomyces cerevisiae, UniProt P39940); test: Back-Scattering Interferometry (BSI) binding to recombinant Rsp5; conditions: for Kd: 100 nM Rsp5, one-site saturation binding model, read-out: dissociation constant (Kd) for binding to Rsp5
T1 sequence (P39940 431-809 limits assumed): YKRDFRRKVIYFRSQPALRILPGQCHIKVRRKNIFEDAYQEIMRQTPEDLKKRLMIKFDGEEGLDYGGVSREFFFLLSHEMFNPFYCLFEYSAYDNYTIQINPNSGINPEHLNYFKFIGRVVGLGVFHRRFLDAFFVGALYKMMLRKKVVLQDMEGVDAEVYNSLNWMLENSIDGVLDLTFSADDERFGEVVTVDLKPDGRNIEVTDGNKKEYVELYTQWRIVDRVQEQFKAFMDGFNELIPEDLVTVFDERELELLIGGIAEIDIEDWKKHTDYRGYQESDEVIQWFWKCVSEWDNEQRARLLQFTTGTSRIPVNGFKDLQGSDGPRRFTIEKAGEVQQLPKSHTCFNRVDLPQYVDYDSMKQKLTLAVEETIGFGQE
Method: Sample Preparation of Rsp5 Target: Rsp5 was supplied in 15 μL aliquots of 100 μM (25 mM HEPES pH 7.5, 200 mM NaCl, 5 mM DTT) by St. Jude Research Hospital (Memphis, Tenn.) and was stored at −80° C. Immediately prior to assays fresh aliquots were thawed and diluted in 25 mM HEPES, pH 7.5, 200 mM NaCl, 1 mM DTT, 0.005% pluronic acid and 1% DMSO. The final Rsp5 concentration in the binding assay was 100 nM.
Sample Preparation of compounds (ligands): The compounds were received as solids and reconstituted to either 40 or 20 mM in 100% DMSO and stored at −80° C. in single use aliquots. The final concentration of each ligand in an assay was 50 μM with a 2× serial dilution to create a 12-point curve.
The assay buffer was 25 mM HEPES, pH 7.5, 200 mM NaCl, 1 mM DTT, 0.005% pluronic acid, 1% DMSO. The assay was run in Eppendorf 96-well PCR microplates. 55 μL of either Rsp5 or buffer (as control) were added to a each well. To these wells were added 55 μL of the compound dilution. A reference channel containing only buffer was setup as well for thermal compensation during assay measurements. The plates were heat sealed with foil and the assay plates were allowed to incubate at room temperature for 2 hours. Wells were pierced individually prior to sample injection and measurement of BSI signal (each well analyzed in duplicate). The assays were run using a glass microfluidic chip with a proprietary surface treatment on TruBind™ 100 system.
The BSI signal was expressed as the magnitude of the spatial shift of the fringe pattern on a CMOS camera, measured in milliradians. The control signal was subtracted from assay signal for each compound dilution point. The resulting values were re-zeroed and analyzed with the GraphPad Prism program. The dissociation constant (Kd) was derived from non-linear least-squares fitting of the data using the one-site saturation binding model. The goodness of fit was judged by the calculated R^2 value. The difference and control curves for at least two successful assays were averaged. The resulting average difference curve was used to calculate the reported Kd value for each compound.

[6] = tested on: Sna3-GFP; test: Immunoblot analysis of Sna3-GFP polyubiquitination in WT and α-syn cells; assay type: cell-based, yeast; conditions: FIG. 11B
Method: as §1
In WT Sna3-GFP cells, log phase CSMRaf cultures were shifted to galactose for 5 hours in the presence or absence of the compounds. Cell pellets were lysed in SDS-loading dye and Sna3-GFP cleavage monitored by Western blotting with an anti-GFP antibody. […]

[7] = tested on: aSyn-expressing yeast cells; test: Morphological analysis of aSyn-expressing yeast cells; assay type: cell-based; conditions: 10 uM, galactose induction five hours, FIG. 10
Method: Raffinose cultures of α-syn expressing yeast cells were grown up to the logarithmic phase in raffinose. Cultures were induced with galactose for five hours in the presence or absence of the indication concentration of the compounds. In the present example, the identified compounds were present at a concentration of 10 uM. Cells were centrifuged, media discarded, and then fixed with 4% paraformaldehyde in 1×PBS for 1 hr. The fixed culture was centrifuged, and the pellet resuspended in 0.4% paraformaldehyde in 1×PBS and kept at 4° C.

With `COc1cc(/C=N/Nc2nc(Nc3cccc(C(F)(F)F)c3)nc(N3CCOCC3)n2)ccc1O` [DES-2179] the “concentration at which efficacy of rescue peaks” value ([1]; dose-response, FIG. 1B, above the peak growth slows) was “around 10 μM”, the “Cpy trafficking defect (block in vesicle trafficking)” value ([2]; FIG. 1C) was “ameliorate this defect” and the “K63-linked ubiquitination of proteins” value ([3]; Nedd4-dependent manner, FIGS. 3A-3C) was “promote K63-linked ubiquitination of proteins”. The “ratio of Sna3-GFP to free GFP” value [4] was “lowest ratio” and the “Sna3-GFP trafficking to the vacuole (in words)” value (from here on “Sna3-GFP trafficking”) [4] was “promotes Sna3-GFP trafficking to the vacuole”.

In the case of `O=C(c1ccc(COc2ccc(OC(F)(F)F)cc2)o1)N1CCN(c2ccccc2)CC1` [DES-2184], the “rescue of aSyn toxicity in yeast (in words)” value (from here on “rescue of aSyn toxicity”) [1] is reported as “also effective”.

`CCCCc1ccc2nc(-c3ccc(-c4cc(Cl)cc(Cl)c4)o3)cc(C(=O)O)c2c1` [DES-2817] was tested, and the “ratio of Sna3-GFP to free GFP” value [4] was “lowest ratio” and the “Sna3-GFP trafficking” value [4] was “promote Sna3-GFP trafficking to the vacuole”.

In the case of `O=C(c1ccc(COc2ccc(OC(F)(F)F)cc2)o1)N1CCC(O)(c2ccc(Cl)cc2)CC1` [DES-2854], the “Sna3-GFP trafficking” value [4] is reported as “promote Sna3-GFP trafficking to the vacuole”.

`COc1cc(Cl)cc(/C=N/Nc2nc(Nc3ccc(C)c(Cl)c3)nc(N3CCOCC3)n2)c1O` [DES-2866] was tested, and the “rescue of aSyn toxicity” value [1] was “also effective” and the “ratio of Sna3-GFP to free GFP” value [4] was “highest ratio”.

With `COc1cc(Cl)cc(/C=N/Nc2nc(Nc3cc(C)ccc3C)nc(N3CCOCC3)n2)c1O` [DES-2877] the Kd [5] was 1700 ± 400 nM, the “rescue of aSyn toxicity” value [1] was “most effective” and the “polyubiquitinated Sna3-GFP” value [6] was “increase”. For the same compound, the “accumulation of CPY trafficking intermediates en route to the vacuole” value ([2]; FIG. 11D) was “increase”, the “morphology: vesicular intermediates in yeast cells” value [7] was “accumulation of vesicular intermediates” and the “K63 linkages in iPS derived human neurons” value ([3]; 5 μM for 12 hours, FIG. 13A) was “modest increase”.

For `O=C(c1ccc(COc2ccc3ccccc3c2)o1)N1CCN(c2ncccn2)CC1` [DES-2926], the “ratio of Sna3-GFP to free GFP” value [4] was “greatest”.

`Cc1ccc(C2CC(C(F)(F)F)n3nc(C(=O)N4CCN(c5ccccc5)CC4)cc3N2)cc1` (stereo not drawn) [DES-2960] was tested, and the “Sna3-GFP trafficking” value [4] was “promotes Sna3-GFP trafficking to the vacuole better than DES-2866 and DES-2928”.

In the case of `COc1cc(/C=N/Nc2nc(Nc3ccccc3)nc(N3CCOCC3)n2)ccc1OCC#N` [DES-3001], the “binding to Rsp5 (in words)” value [5] is reported as “did not show binding” and the “Sna3-GFP trafficking” value [4] is reported as “promote Sna3-GFP trafficking to the vacuole”.

With `O=C(Nc1cccc(Cl)c1)c1coc(CN2CCN(c3ccc(F)cc3)CC2)n1` [DES-3035] the “Sna3-GFP trafficking” value [4] was “promote Sna3-GFP trafficking to the vacuole”.

In the case of `C(=N\Nc1nc(Nc2ccccc2)nc(N2CCOCC2)n1)/c1ccncc1` [DES-4117], the “binding to Rsp5 (in words)” value [5] is reported as “did not show binding”.

With `Cc1ccc(C)c(Nc2nc(N/N=C/c3ccncc3)nc(N3CCOCC3)n2)c1` [DES-5204] the “Sna3-GFP trafficking” value [4] was “promote Sna3-GFP trafficking to the vacuole”.

With `C(=N\Nc1cc(N2CCOCC2)nc(Nc2ccccc2)n1)/c1ccncc1` [DES-5212] the Kd [5] was 680 ± 180 nM, the “ratio of Sna3-GFP to free GFP” value [4] was “lowest” and the “Sna3-GFP trafficking” value [4] was “promote Sna3-GFP trafficking to the vacuole”.
